Source: patent US20050261290A1, “Novel compounds of proline and morpholine derivatives” (priority 2004, published 2005)
pKi: −log10 of the molar value. Like-named read-outs stand apart in the source and are kept apart here.

Biological target: human 11b-hsd-1 (Homo sapiens, UniProt P28845)
Assay: Inhibition constant Ki of human 11b-hsd-1 (3H-cortisone to 3H-cortisol conversion, HPLC)
Type: biochemical
Conditions: for pKi: apparent Ki, read-out: Ki app

human 11b-hsd-1, sequence (P28845 whole entry): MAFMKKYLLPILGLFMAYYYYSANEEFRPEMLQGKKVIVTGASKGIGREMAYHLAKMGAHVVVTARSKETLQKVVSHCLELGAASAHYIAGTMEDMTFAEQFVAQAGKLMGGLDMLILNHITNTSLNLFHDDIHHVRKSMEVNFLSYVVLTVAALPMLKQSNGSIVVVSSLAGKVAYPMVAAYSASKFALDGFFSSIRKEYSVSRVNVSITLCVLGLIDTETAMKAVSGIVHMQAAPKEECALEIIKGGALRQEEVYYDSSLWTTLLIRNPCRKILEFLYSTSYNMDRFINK

| SMILES | inhibition at 0.1 µM (compound at 0.1 μM) [%] | inhibition at 0.1 µM (0.1 μM compound) [%] | pKi | pKi (human 11b-hsd-1) |
| --- | --- | --- | --- | --- |
| CN1CCC(CN2C[C@H](O)C[C@@H]2C(=O)NC2C3CC4CC(C3)CC2C4)CC1 (stereo partly drawn) [Example 47, (4R)-N-2-adamantyl-4-hydroxy-1-[(1-methylpiperidin-4-yl)methyl]-D prolinamide] | 38 |  |  |  |
| O=C(NCc1ccc(F)cc1F)[C@H]1CCCN1Cc1ccccc1 [Example 236] |  | 76.8 | 7.18 |  |
| O=C(NC1C2CC3CC(C2)CC1C3)[C@H]1NCC[C@@H]1CC1CCCCC1 (stereo partly drawn) [Example 366] |  | 94.9 | 7.82 |  |
| CC(C)CN1CCC[C@@H]1C(=O)NCc1cccc(Cl)c1 [Example 223] |  | 86.3 | 7.59 |  |
| N#Cc1ccc(CN2CCC[C@@H]2C(=O)NCc2ccccc2)cc1 [Example 323] |  | 69.7 | 6.96 |  |
| O=C(NC1C2CC3CC(C2)CC1C3)[C@H]1CCCN1Cc1ccccn1 (stereo partly drawn) [Example 41] | 100 |  |  | > 9.00 |
| CCc1ccccc1O[C@@H]1CN[C@H](C(=O)NC2C3CC4CC(C3)CC2C4)C1 (stereo partly drawn) [Example 350] |  | 100 | 8.66 |  |
| CC(C)CN1CCC[C@@H]1C(=O)NCC1(O)CCCC1 [Example 330] |  | 83.5 | 7.52 |  |
| CC(C)CN1CCOC[C@@H]1C(=O)NCc1ccc(F)cc1F [Example 281] |  | 84.9 | 7.32 |  |
| CN(C)CCN1CCC[C@@H]1C(=O)NC1C2CC3CC(C2)CC1C3 (stereo partly drawn) [Example 107] | 100 |  |  | 8.70 |
| CC(C)CN1CCOC[C@@H]1C(=O)NCc1ccc(F)cc1 [Example 34] | 79 |  |  | 7.74 |
| CCOc1cccc(O[C@@H]2CN[C@H](C(=O)NC3C4CC5CC(C4)CC3C5)C2)c1 (stereo partly drawn) [Example 358] |  | 100 | 8.35 |  |
| CCCN1CCOC[C@@H]1C(=O)NC1CCCCC1 [Example 331] |  | 86.6 | 7.59 |  |
| CN(Cc1ccccc1)C(=O)[C@H]1COCCN1Cc1ccccc1 [Example 272] |  | 71.7 | 9.00 |  |
| CCCN1CCC[C@@H]1C(=O)NC1CCCCC1 [Example 85] | 94 |  |  | 8.05 |
| O=C(N[C@@H]1CCc2ccccc21)[C@H]1COCCN1Cc1ccccc1 [Example 304] |  | 59.4 | 8.44 |  |
| Cc1cccc(CNC(=O)[C@H]2CCCN2CC(C)C)c1 [Example 258] |  | 90.1 | 7.62 |  |
| CC(C)CN1CCC[C@@H]1C(=O)N[C@@H]1CCCc2ccccc21 [Example 51] | 100 |  |  | 9.00 |
| O=C(NC1C2CC3CC(C2)CC1C3)[C@@H]1C[C@H](Oc2cc(F)ccc2F)CN1 (stereo partly drawn) [Example 352] |  | 100 | 9.00 |  |
| COc1ccccc1CNC(=O)[C@H]1CCCN1CC(C)C [Example 255] |  | 100 | 8.07 |  |

| SMILES | inhibition at 0.1 µM (compound at 0.1 μM) [%] | inhibition at 0.1 µM (0.1 μM compound) [%] | pKi | pKi (human 11b-hsd-1) |
| --- | --- | --- | --- | --- |
| CC(=O)NCCN1CCC[C@@H]1C(=O)NC1C2CC3CC(C2)CC1C3 (stereo partly drawn) [Example 129, 1-(2-Acetylamino-ethyl)pyrrolidine-2-carboxylic acid adamantan-2-ylamide] | 72 |  |  |  |
| CCOCCN1CCC[C@@H]1C(=O)NC1CCCCC1 [Example 95] | 78 |  |  | 7.41 |
| CCN1CCC[C@H](C(=O)NC2C3CC4CC(C3)CC2C4)C1 (stereo partly drawn) [Example 124] | 100 |  |  |  |
| N#Cc1ccccc1CN1CCC[C@@H]1C(=O)N[C@@H]1CCc2ccccc21 [Example 284] |  | 93.1 | 7.94 |  |
| CC(C)CN1CCC[C@@H]1C(=O)NCc1ccccc1F [Example 220] |  | 96.7 | 8.29 |  |
| O=C(NC1C2CC3CC(C2)CC1C3)[C@@H]1C[C@H](Oc2c(F)cc(F)cc2F)CN1 (stereo partly drawn) [Example 363] |  | 100 | 9.00 |  |
| O=C(NC1C2CC3CC(C2)CC1C3)[C@@H]1NCC[C@H]1c1ccccc1 (stereo partly drawn) [Example 340] |  | 100 | 8.28 |  |
| C[C@H](N)CN1CCC[C@@H]1C(=O)NC1C2CC3CC(C2)CC1C3 (stereo partly drawn) [Example 176] | 100 |  |  |  |
| N#Cc1cccc(CN2CCOCC2C(=O)NC23CC4CC(CC(C4)C2)C3)c1 (stereo not drawn) [Example 179] | 100 |  |  | 8.70 |
| CC(C)CN1CCOC[C@@H]1C(=O)N[C@@H]1CCc2ccccc21 [Example 308] |  | 97.7 | 8.24 |  |
| C[C@@H](NC(=O)[C@H]1CCCN1CC1CCCC1)c1ccccc1 [Example 292] |  | 92.1 | 8.02 |  |
| CC(C)CN1CCOC[C@@H]1C(=O)NC1Cc2ccccc2C1 [Example 307] |  | 100 | 7.89 |  |
| C[C@@H](NC(=O)[C@H]1CCCN1Cc1ccccc1)c1ccc(Cl)cc1 [Example 296] |  | 95.7 | 7.94 |  |
| CC(C)(C)OC(=O)N1CCC[C@@H]1CN1CCC[C@@H]1C(=O)NC1C2CC3CC(C2)CC1C3 (stereo partly drawn) [Example 113] | 100 |  |  |  |
| CC(C)CN1CCC[C@@H]1C(=O)NCc1ccc(F)cc1F [Example 238] |  | 88.4 | 7.79 |  |
| COC(C)(C)CN1CCC[C@@H]1C(=O)NC1CCCCC1 [Example 88, 1-(2-Methoxy-2-methyl-propyl)-pyrrolidine-2-carboxylic acid cyclohexylamide] | 94 |  |  | 8.15 |
| O=C(NCc1ccc(F)cc1)[C@H]1CCCN1Cc1ccccc1 [Example 214] |  | 82.7 | 7.23 |  |
| COc1ccccc1CNC(=O)[C@H]1CCCN1Cc1ccc(C#N)cc1 [Example 251] |  | 83.5 | 7.33 |  |
| N#Cc1cccc(CN2CCOC[C@@H]2C(=O)NC2C3CC4CC(C3)CC2C4)c1 (stereo partly drawn) [Example 275] |  | 100 | 8.82 |  |
| CCC1CCCCN1C(=O)[C@H]1CSCN1CC(C)C (stereo partly drawn) [Example 200] |  | 91.6 | 7.44 |  |

| SMILES | inhibition at 0.1 µM (compound at 0.1 μM) [%] | inhibition at 0.1 µM (0.1 μM compound) [%] | pKi | pKi (human 11b-hsd-1) |
| --- | --- | --- | --- | --- |
| CCCN1CCOC[C@@H]1C(=O)NC1C2CC3CC(C2)CC1C3 (stereo partly drawn) [Example 65] | 100 |  |  | 8.59 |
| COc1cc(F)ccc1O[C@@H]1CN[C@H](C(=O)NC2C3CC4CC(C3)CC2C4)C1 (stereo partly drawn) [Example 353] |  | 100 | 8.31 |  |
| CN(C)CCN1C[C@H](O)C[C@@H]1C(=O)NC1C2CC3CC(C2)CC1C3 (stereo partly drawn) [Example 43] | 31.9 |  |  |  |
| O=C(NCc1ccccc1Cl)[C@H]1CCCN1CCC(F)(F)F [Example 265] |  | 86 | 8.39 |  |
| CC(C)CN1C[C@H](O)C[C@@H]1C(=O)NCC1CCCCC1 [Example 337] |  | 97.8 | 7.89 |  |
| Cc1ncccc1O[C@@H]1CN[C@H](C(=O)NC2C3CC4CC(C3)CC2C4)C1 (stereo partly drawn) [Example 359] |  | 80.7 | 7.36 |  |
| CN(Cc1ccccc1Cl)C(=O)[C@H]1COCCN1CC1CCCC1 [Example 312] |  | 95.3 | 7.85 |  |
| CCCN1CCC[C@@H]1C(=O)N[C@@H]1CCc2ccccc21 [Example 286] |  | 91.4 | 8.24 |  |
| O=C(NC1C2CC3CC(C2)CC1C3)[C@H]1NCC[C@@H]1Cc1ccc(F)cc1 (stereo partly drawn) [Example 368] |  | 96.4 | 8.17 |  |
| CCCN1CCC[C@@H]1C(=O)NC1CCCCCC1 [Example 93] | 100 |  |  | 8.70 |
| O=C(NCc1ccc(Cl)cc1)[C@H]1CCCN1Cc1ccc(Cl)cc1 [Example 325] |  | 35.7 |  |  |
| CC(C)CN1CCC[C@@H]1C(=O)NC1Cc2ccccc2C1 [Example 289] |  | 100 | 8.92 |  |
| CC(C)[C@H]1CCN[C@@H]1C(=O)NC1C2CC3CC(C2)CC1C3 (stereo partly drawn) [Example 344] |  | 90.7 | 7.96 |  |
| CCOc1ccccc1CNC(=O)[C@H]1COCCN1CC(C)C [Example 35] | 82 |  |  | 7.65 |
| Cc1ccccc1CNC(=O)[C@H]1CCCN1Cc1ccc(C#N)cc1 [Example 252] |  | 82.6 | 7.28 |  |
| CC(C)CN1[C@H]2CC[C@H](C2)[C@H]1C(=O)NC12CC3CC(CC(C3)C1)C2 (relative stereo) [Example 209] |  | 100 | 8.72 |  |
| O=C(NC1CCCCC1)[C@H]1CCCN1CC1CCOCC1 [Example 99] | 91 |  |  | 8.10 |
| CC(C)CN1CSC[C@@H]1C(=O)NC12CC3CC(CC(C3)C1)C2 [Example 208] |  | 100 | 9.00 |  |
| CC(C)(C)OC(=O)N1CCC[C@H]1CN1CCC[C@@H]1C(=O)NC1C2CC3CC(C2)CC1C3 (stereo partly drawn) [Example 112] | 81 |  |  |  |
| CC(C)CN1CCC[C@@H]1C(=O)NC12C3C4C1C1C2C3C41C (stereo partly drawn) [Example 122] | 100 |  |  |  |
